pIC50: −log10 of the molar value. Read-outs that look alike come from different tables or passages of the source. Positions of bridges follow the written chain, without caps; N, C: chain ends. Non-standard residues stand in square brackets, D forms with d. Residues, ends and D or L forms follow the SMILES beside them. Nva = CCC[C@H](N)C(=O)O
Assays:
[1] = test system: classical complement pathway; test: In vitro haemolysis assay (inhibition of classical complement pathway); type: cell-based, human
Procedure, shortened: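 Compound dilutions preincubated 15 min at room temperature with diluted human serum (titrated per batch for 70-90% maximal haemolysis), then antibody-sensitized sheep RBC (10^7/well) added for 30 min at 37 °C in Tris/casein buffer, pH 7.4. Stopped with EDTA; haemolysis read at 405 nm; IC50 by 4PL fit.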

[2] = Solubility test at 10 mg/mL (visual inspection and light scattering); type: physicochemical; conditions: for Solubility, Condition 1: Acetate pH 4; for Solubility, Condition 2: Acetate pH 5; for Solubility, Condition 3: Phosphate pH 6; for Solubility, Condition 4: Phosphate pH 7; for Solubility, Condition 5: Phosphate pH 7.5
Procedure: The solubility of compounds was assessed by measuring light scattering over a pH interval from pH 4 to pH 7.5.
Compounds were dissolved in a stock solution of 20 mg/mL in H2O at pH 2.5 or pH 10. These stock solutions were diluted 1:1 with 200 mM buffered solution to reach a final solution of 10 mg/mL compound in 100 mM buffer. The 5 investigated conditions were (1) acetate pH 4.0, (2) acetate pH 5.0, (3) phosphate pH 6.0, (4) phosphate pH 7 and (5) phosphate pH 7.5.
Visual inspection included manually checking the 96 well plate for wells that are clear or non-clear. In addition to this a picture of the 96 well plate is taken.
Absorbance was measured at four wavelengths: 280 nm, 325 nm, 340 nm and 360 nm in an UV transparent 96 well microplate in a SpectraMax 190 microplate reader (Molecular Devices).
The criteria for this was a combination of visual inspection and light scattering not exceeding 0.1 AU, where values below 0.1 AU are good in visually clear samples.

[3] = human serum, sensitized sheep red blood cells, Table 3, given as upper bounds, read-out: IC50, inhibition of hemolysis
[4] = human serum, sensitized sheep red blood cells, Table 4, valine 3 vs isoleucine 3 pairs, read-out: CP hemolysis IC50
[5] = Table 5, different residues at position 3 of Ac-IC(1)XWQDWGEHRC(1)T-NH2, read-out: IC50, CP hemolysis

Molecule	pIC50 ([1]; human serum, sensitized sheep red blood cells, Table 2, read-out: CP hemolysis IC50)	pIC50 [1, 3]	Solubility, Condition 1 [2]	Solubility, Condition 2 [2]	Solubility, Condition 3 [2]	Solubility, Condition 4 [2]	Solubility, Condition 5 [2]	pIC50 [1, 4]	pIC50 [1, 5]
CC[C@H](C)[C@H](NC(C)=O)C(=O)N[C@H]1CSSC[C@@H](C(=O)N[C@H](C(N)=O)[C@@H](C)O)NC(=O)[C@H](CCCNC(=N)N)NC(=O)[C@H](Cc2c[nH]cn2)NC(=O)[C@H](C)NC(=O)CNC(=O)[C@H](Cc2c[nH]c3ccccc23)NC(=O)[C@H](CC(=O)O)NC(=O)[C@H](CCC(N)=O)NC(=O)[C@H](Cc2c[nH]c3ccccc23)NC(=O)[C@H]([C@@H](C)CC)NC1=O [Compound 1] (Ac-ICIWQDWGAHRCT-NH2; disulfide 2-12)	6.82	> 6.60	+ (“+” denotes solubility at the given condition, as determined by UV absorbance being less than 0.1 AU at 340 nm and the sample being clear when manually inspected)	− (“−” denotes lack of solubility at the given condition, as UV absorbance at 340 nm exceeds 0.1 AU and/or it is visibly turbid or contains particles)	− (“−” denotes lack of solubility at the given condition, as UV absorbance at 340 nm exceeds 0.1 AU and/or it is visibly turbid or contains particles)	− (“−” denotes lack of solubility at the given condition, as UV absorbance at 340 nm exceeds 0.1 AU and/or it is visibly turbid or contains particles)	− (“−” denotes lack of solubility at the given condition, as UV absorbance at 340 nm exceeds 0.1 AU and/or it is visibly turbid or contains particles)		
CC[C@H](C)[C@H](NC(=O)[C@H](C)NC(=O)[C@H](CO)NC(=O)[C@H](CO)NC(=O)[C@H](CCC(=O)O)NC(C)=O)C(=O)N[C@H]1CSSC[C@@H](C(=O)N[C@H](C(N)=O)[C@@H](C)O)NC(=O)[C@H](CCCNC(=N)N)NC(=O)[C@H](Cc2c[nH]cn2)NC(=O)[C@H](CCC(=O)O)NC(=O)CNC(=O)[C@H](Cc2c[nH]c3ccccc23)NC(=O)[C@H](CC(=O)O)NC(=O)[C@H](CCC(N)=O)NC(=O)[C@H](Cc2c[nH]c3ccccc23)NC(=O)[C@H]([C@@H](C)CC)NC1=O [Compound 3] (Ac-ESSAICIWQDWGEHRCT-NH2; disulfide 6-16)		> 7.00	+ (“+” denotes solubility at the given condition, as determined by UV absorbance being less than 0.1 AU at 340 nm and the sample being clear when manually inspected)	− (“−” denotes lack of solubility at the given condition, as UV absorbance at 340 nm exceeds 0.1 AU and/or it is visibly turbid or contains particles)	− (“−” denotes lack of solubility at the given condition, as UV absorbance at 340 nm exceeds 0.1 AU and/or it is visibly turbid or contains particles)	+ (“+” denotes solubility at the given condition, as determined by UV absorbance being less than 0.1 AU at 340 nm and the sample being clear when manually inspected)	+ (“+” denotes solubility at the given condition, as determined by UV absorbance being less than 0.1 AU at 340 nm and the sample being clear when manually inspected)	7.16	
CC[C@H](C)[C@H](NC(=O)[C@H](C)NC(=O)[C@H](CO)NC(=O)[C@H](CO)NC(=O)[C@H](CCC(=O)O)NC(C)=O)C(=O)N[C@H]1CSSC[C@@H](C(=O)N[C@H](C(=O)NCC(=O)N[C@@H](C)C(=O)N[C@@H](CCC(=O)O)C(=O)N[C@@H](CO)C(N)=O)[C@@H](C)O)NC(=O)[C@H](CCCNC(=N)N)NC(=O)[C@H](Cc2c[nH]cn2)NC(=O)[C@H](CCC(=O)O)NC(=O)CNC(=O)[C@H](Cc2c[nH]c3ccccc23)NC(=O)[C@H](CC(=O)O)NC(=O)[C@H](CCC(N)=O)NC(=O)[C@H](Cc2c[nH]c3ccccc23)NC(=O)[C@H]([C@@H](C)CC)NC1=O [Compound 14] (Ac-ESSAICIWQDWGEHRCTGAES-NH2; disulfide 6-16)		> 7.00	+ (“+” denotes solubility at the given condition, as determined by UV absorbance being less than 0.1 AU at 340 nm and the sample being clear when manually inspected)	− (“−” denotes lack of solubility at the given condition, as UV absorbance at 340 nm exceeds 0.1 AU and/or it is visibly turbid or contains particles)	− (“−” denotes lack of solubility at the given condition, as UV absorbance at 340 nm exceeds 0.1 AU and/or it is visibly turbid or contains particles)	+ (“+” denotes solubility at the given condition, as determined by UV absorbance being less than 0.1 AU at 340 nm and the sample being clear when manually inspected)	+ (“+” denotes solubility at the given condition, as determined by UV absorbance being less than 0.1 AU at 340 nm and the sample being clear when manually inspected)		
CC[C@H](C)[C@H](NC(C)=O)C(=O)N[C@H]1CSSC[C@@H](C(=O)N[C@H](C(=O)NCC(=O)N[C@@H](C)C(=O)N[C@@H](CCC(=O)O)C(=O)N[C@@H](CO)C(N)=O)[C@@H](C)O)NC(=O)[C@H](CCCNC(=N)N)NC(=O)[C@H](Cc2c[nH]cn2)NC(=O)[C@H](CCC(=O)O)NC(=O)CNC(=O)[C@H](Cc2c[nH]c3ccccc23)NC(=O)[C@H](CC(=O)O)NC(=O)[C@H](CCC(N)=O)NC(=O)[C@H](Cc2c[nH]c3ccccc23)NC(=O)[C@H]([C@@H](C)CC)NC1=O [Compound 15] (Ac-ICIWQDWGEHRCTGAES-NH2; disulfide 2-12)		> 7.00	+ (“+” denotes solubility at the given condition, as determined by UV absorbance being less than 0.1 AU at 340 nm and the sample being clear when manually inspected)	− (“−” denotes lack of solubility at the given condition, as UV absorbance at 340 nm exceeds 0.1 AU and/or it is visibly turbid or contains particles)	− (“−” denotes lack of solubility at the given condition, as UV absorbance at 340 nm exceeds 0.1 AU and/or it is visibly turbid or contains particles)	+ (“+” denotes solubility at the given condition, as determined by UV absorbance being less than 0.1 AU at 340 nm and the sample being clear when manually inspected)	+ (“+” denotes solubility at the given condition, as determined by UV absorbance being less than 0.1 AU at 340 nm and the sample being clear when manually inspected)	7.33	
CC[C@H](C)[C@H](NC(C)=O)C(=O)N[C@H]1CSSC[C@@H](C(=O)N[C@@H](CCC(=O)O)C(N)=O)NC(=O)[C@H](CCCNC(=N)N)NC(=O)[C@H](Cc2c[nH]cn2)NC(=O)[C@H](CCC(=O)O)NC(=O)CNC(=O)[C@H](Cc2c[nH]c3ccccc23)NC(=O)[C@H](CC(=O)O)NC(=O)[C@H](CCC(N)=O)NC(=O)[C@H](Cc2c[nH]c3ccccc23)NC(=O)[C@H]([C@@H](C)CC)NC1=O [Compound 22] (Ac-ICIWQDWGEHRCE-NH2; disulfide 2-12)		> 7.00	+ (“+” denotes solubility at the given condition, as determined by UV absorbance being less than 0.1 AU at 340 nm and the sample being clear when manually inspected)	− (“−” denotes lack of solubility at the given condition, as UV absorbance at 340 nm exceeds 0.1 AU and/or it is visibly turbid or contains particles)	− (“−” denotes lack of solubility at the given condition, as UV absorbance at 340 nm exceeds 0.1 AU and/or it is visibly turbid or contains particles)	+ (“+” denotes solubility at the given condition, as determined by UV absorbance being less than 0.1 AU at 340 nm and the sample being clear when manually inspected)	+ (“+” denotes solubility at the given condition, as determined by UV absorbance being less than 0.1 AU at 340 nm and the sample being clear when manually inspected)		
CC[C@H](C)[C@H](NC(C)=O)C(=O)N[C@H]1CSSC[C@@H](C(=O)N[C@H](C(=O)N[C@@H](CCC(=O)O)C(=O)NCC(=O)N[C@@H](CCC(=O)O)C(N)=O)[C@@H](C)O)NC(=O)[C@H](CCCNC(=N)N)NC(=O)[C@H](Cc2c[nH]cn2)NC(=O)[C@H](CCC(=O)O)NC(=O)CNC(=O)[C@H](Cc2c[nH]c3ccccc23)NC(=O)[C@H](CC(=O)O)NC(=O)[C@H](CCC(N)=O)NC(=O)[C@H](Cc2c[nH]c3ccccc23)NC(=O)[C@H](C(C)C)NC1=O [J, reference compound] (Ac-ICVWQDWGEHRCTEGE-NH2; disulfide 2-12)								6.62	
CCC[C@@H]1NC(=O)[C@@H](NC(=O)[C@@H](NC(C)=O)[C@@H](C)CC)CSSC[C@@H](C(=O)N[C@H](C(N)=O)[C@@H](C)O)NC(=O)[C@H](CCCNC(=N)N)NC(=O)[C@H](Cc2c[nH]cn2)NC(=O)[C@H](CCC(=O)O)NC(=O)CNC(=O)[C@H](Cc2c[nH]c3ccccc23)NC(=O)[C@H](CC(=O)O)NC(=O)[C@H](CCC(N)=O)NC(=O)[C@H](Cc2c[nH]c3ccccc23)NC1=O [Norvaline, Ac-IC(1)XWQDWGEHRC(1)T-NH2, reference compound] (Ac-IC[Nva]WQDWGEHRCT-NH2; disulfide 2-12)									< 6.00
Ac-IC(1)XWQDWGEHRC(1)T-NH2 [Beta-Homo-lsoleucine, reference compound]									< 5.00
